Measurements: BindingDB's records for doi:10.1016/s0960-894x(01)00331-6 (Dupont Pharmaceuticals, 2001)

Biological target: T1, Gag-Pol polyprotein [588-1027]/[588-1147] (Human immunodeficiency virus 1, UniProt P04585)
T1 construct: 588-1027; 588-1147
Test: HIV-1 RT Assay
Details: pH 8.2; 37 °C
Source text: The IC50 of reverse transcriptase is the concentration that inhibits 50% of recombinant HIV-1 RT RNA-directed DNA polymerase activity in vitro.

SMILES	IC50 [nM]
O=C1Nc2ccc(Cl)cc2[C@@](C#CC2CC2)(C(F)(F)F)[C@H]1NCc1ccccc1 [(3R,4R)-3-(benzylamino)-6-chloro-4-(2-cyclopropylethynyl)-4-(trifluoromethyl)-1,2,3,4-tetrahydroquinolin-2-one]	> 2000
CC(C)=CCO[C@H]1C(=O)Nc2ccc(Cl)cc2[C@@]1(C#CC1CC1)C(F)(F)F [(3R,4R)-6-chloro-4-(2-cyclopropylethynyl)-3-[(3-methylbut-2-en-1-yl)oxy]-4-(trifluoromethyl)-1,2,3,4-tetrahydroquinolin-2-one]	> 2000
O=C1Nc2ccc(Cl)cc2[C@@](C#CC2CC2)(C(F)(F)F)[C@H]1O [(3R,4R)-6-chloro-4-(2-cyclopropylethynyl)-3-hydroxy-4-(trifluoromethyl)-1,2,3,4-tetrahydroquinolin-2-one]	> 2000
CC(=O)N[C@H]1C(=O)Nc2ccc(Cl)cc2[C@@]1(C#CC1CC1)C(F)(F)F [N-[(3R,4R)-6-chloro-4-(2-cyclopropylethynyl)-2-oxo-4-(trifluoromethyl)-1,2,3,4-tetrahydroquinolin-3-yl]acetamide]	> 2000
COC(=O)N[C@H]1C(=O)Nc2ccc(Cl)cc2[C@@]1(C#CC1CC1)C(F)(F)F [methyl N-[(3R,4R)-6-chloro-4-(2-cyclopropylethynyl)-2-oxo-4-(trifluoromethyl)-1,2,3,4-tetrahydroquinolin-3-yl]carbamate]	> 2000
